Test results taken from patent US20130273181A1, “METHODS AND COMPOSITIONS FOR DIAGNOSING AND TREATING MUSCLE MYOPATHY DISORDERS” (The Regents of the University of Colorado, a body Corporate, priority 2012, published 2013).

Columns and labels:
Assay in all cases: Calcium transient measurements (Fluo-3) in cultured myotubes in response to RyR1 agonist
RyR1 [1] = target: T1, RyR1 (Mus musculus, UniProt E9PZQ0); type: cell-based; conditions: 4-CmC 0.5 mM, normal myotubes
T1 construct: produced substantial Ca^2+ release in both normal and Ryr1^m1Nisw/m1Nisw myotubes; endogenous in cells; host or cells: cultured myotubes from locomotor-normal mouse embryos
T1 sequence (E9PZQ0 whole entry): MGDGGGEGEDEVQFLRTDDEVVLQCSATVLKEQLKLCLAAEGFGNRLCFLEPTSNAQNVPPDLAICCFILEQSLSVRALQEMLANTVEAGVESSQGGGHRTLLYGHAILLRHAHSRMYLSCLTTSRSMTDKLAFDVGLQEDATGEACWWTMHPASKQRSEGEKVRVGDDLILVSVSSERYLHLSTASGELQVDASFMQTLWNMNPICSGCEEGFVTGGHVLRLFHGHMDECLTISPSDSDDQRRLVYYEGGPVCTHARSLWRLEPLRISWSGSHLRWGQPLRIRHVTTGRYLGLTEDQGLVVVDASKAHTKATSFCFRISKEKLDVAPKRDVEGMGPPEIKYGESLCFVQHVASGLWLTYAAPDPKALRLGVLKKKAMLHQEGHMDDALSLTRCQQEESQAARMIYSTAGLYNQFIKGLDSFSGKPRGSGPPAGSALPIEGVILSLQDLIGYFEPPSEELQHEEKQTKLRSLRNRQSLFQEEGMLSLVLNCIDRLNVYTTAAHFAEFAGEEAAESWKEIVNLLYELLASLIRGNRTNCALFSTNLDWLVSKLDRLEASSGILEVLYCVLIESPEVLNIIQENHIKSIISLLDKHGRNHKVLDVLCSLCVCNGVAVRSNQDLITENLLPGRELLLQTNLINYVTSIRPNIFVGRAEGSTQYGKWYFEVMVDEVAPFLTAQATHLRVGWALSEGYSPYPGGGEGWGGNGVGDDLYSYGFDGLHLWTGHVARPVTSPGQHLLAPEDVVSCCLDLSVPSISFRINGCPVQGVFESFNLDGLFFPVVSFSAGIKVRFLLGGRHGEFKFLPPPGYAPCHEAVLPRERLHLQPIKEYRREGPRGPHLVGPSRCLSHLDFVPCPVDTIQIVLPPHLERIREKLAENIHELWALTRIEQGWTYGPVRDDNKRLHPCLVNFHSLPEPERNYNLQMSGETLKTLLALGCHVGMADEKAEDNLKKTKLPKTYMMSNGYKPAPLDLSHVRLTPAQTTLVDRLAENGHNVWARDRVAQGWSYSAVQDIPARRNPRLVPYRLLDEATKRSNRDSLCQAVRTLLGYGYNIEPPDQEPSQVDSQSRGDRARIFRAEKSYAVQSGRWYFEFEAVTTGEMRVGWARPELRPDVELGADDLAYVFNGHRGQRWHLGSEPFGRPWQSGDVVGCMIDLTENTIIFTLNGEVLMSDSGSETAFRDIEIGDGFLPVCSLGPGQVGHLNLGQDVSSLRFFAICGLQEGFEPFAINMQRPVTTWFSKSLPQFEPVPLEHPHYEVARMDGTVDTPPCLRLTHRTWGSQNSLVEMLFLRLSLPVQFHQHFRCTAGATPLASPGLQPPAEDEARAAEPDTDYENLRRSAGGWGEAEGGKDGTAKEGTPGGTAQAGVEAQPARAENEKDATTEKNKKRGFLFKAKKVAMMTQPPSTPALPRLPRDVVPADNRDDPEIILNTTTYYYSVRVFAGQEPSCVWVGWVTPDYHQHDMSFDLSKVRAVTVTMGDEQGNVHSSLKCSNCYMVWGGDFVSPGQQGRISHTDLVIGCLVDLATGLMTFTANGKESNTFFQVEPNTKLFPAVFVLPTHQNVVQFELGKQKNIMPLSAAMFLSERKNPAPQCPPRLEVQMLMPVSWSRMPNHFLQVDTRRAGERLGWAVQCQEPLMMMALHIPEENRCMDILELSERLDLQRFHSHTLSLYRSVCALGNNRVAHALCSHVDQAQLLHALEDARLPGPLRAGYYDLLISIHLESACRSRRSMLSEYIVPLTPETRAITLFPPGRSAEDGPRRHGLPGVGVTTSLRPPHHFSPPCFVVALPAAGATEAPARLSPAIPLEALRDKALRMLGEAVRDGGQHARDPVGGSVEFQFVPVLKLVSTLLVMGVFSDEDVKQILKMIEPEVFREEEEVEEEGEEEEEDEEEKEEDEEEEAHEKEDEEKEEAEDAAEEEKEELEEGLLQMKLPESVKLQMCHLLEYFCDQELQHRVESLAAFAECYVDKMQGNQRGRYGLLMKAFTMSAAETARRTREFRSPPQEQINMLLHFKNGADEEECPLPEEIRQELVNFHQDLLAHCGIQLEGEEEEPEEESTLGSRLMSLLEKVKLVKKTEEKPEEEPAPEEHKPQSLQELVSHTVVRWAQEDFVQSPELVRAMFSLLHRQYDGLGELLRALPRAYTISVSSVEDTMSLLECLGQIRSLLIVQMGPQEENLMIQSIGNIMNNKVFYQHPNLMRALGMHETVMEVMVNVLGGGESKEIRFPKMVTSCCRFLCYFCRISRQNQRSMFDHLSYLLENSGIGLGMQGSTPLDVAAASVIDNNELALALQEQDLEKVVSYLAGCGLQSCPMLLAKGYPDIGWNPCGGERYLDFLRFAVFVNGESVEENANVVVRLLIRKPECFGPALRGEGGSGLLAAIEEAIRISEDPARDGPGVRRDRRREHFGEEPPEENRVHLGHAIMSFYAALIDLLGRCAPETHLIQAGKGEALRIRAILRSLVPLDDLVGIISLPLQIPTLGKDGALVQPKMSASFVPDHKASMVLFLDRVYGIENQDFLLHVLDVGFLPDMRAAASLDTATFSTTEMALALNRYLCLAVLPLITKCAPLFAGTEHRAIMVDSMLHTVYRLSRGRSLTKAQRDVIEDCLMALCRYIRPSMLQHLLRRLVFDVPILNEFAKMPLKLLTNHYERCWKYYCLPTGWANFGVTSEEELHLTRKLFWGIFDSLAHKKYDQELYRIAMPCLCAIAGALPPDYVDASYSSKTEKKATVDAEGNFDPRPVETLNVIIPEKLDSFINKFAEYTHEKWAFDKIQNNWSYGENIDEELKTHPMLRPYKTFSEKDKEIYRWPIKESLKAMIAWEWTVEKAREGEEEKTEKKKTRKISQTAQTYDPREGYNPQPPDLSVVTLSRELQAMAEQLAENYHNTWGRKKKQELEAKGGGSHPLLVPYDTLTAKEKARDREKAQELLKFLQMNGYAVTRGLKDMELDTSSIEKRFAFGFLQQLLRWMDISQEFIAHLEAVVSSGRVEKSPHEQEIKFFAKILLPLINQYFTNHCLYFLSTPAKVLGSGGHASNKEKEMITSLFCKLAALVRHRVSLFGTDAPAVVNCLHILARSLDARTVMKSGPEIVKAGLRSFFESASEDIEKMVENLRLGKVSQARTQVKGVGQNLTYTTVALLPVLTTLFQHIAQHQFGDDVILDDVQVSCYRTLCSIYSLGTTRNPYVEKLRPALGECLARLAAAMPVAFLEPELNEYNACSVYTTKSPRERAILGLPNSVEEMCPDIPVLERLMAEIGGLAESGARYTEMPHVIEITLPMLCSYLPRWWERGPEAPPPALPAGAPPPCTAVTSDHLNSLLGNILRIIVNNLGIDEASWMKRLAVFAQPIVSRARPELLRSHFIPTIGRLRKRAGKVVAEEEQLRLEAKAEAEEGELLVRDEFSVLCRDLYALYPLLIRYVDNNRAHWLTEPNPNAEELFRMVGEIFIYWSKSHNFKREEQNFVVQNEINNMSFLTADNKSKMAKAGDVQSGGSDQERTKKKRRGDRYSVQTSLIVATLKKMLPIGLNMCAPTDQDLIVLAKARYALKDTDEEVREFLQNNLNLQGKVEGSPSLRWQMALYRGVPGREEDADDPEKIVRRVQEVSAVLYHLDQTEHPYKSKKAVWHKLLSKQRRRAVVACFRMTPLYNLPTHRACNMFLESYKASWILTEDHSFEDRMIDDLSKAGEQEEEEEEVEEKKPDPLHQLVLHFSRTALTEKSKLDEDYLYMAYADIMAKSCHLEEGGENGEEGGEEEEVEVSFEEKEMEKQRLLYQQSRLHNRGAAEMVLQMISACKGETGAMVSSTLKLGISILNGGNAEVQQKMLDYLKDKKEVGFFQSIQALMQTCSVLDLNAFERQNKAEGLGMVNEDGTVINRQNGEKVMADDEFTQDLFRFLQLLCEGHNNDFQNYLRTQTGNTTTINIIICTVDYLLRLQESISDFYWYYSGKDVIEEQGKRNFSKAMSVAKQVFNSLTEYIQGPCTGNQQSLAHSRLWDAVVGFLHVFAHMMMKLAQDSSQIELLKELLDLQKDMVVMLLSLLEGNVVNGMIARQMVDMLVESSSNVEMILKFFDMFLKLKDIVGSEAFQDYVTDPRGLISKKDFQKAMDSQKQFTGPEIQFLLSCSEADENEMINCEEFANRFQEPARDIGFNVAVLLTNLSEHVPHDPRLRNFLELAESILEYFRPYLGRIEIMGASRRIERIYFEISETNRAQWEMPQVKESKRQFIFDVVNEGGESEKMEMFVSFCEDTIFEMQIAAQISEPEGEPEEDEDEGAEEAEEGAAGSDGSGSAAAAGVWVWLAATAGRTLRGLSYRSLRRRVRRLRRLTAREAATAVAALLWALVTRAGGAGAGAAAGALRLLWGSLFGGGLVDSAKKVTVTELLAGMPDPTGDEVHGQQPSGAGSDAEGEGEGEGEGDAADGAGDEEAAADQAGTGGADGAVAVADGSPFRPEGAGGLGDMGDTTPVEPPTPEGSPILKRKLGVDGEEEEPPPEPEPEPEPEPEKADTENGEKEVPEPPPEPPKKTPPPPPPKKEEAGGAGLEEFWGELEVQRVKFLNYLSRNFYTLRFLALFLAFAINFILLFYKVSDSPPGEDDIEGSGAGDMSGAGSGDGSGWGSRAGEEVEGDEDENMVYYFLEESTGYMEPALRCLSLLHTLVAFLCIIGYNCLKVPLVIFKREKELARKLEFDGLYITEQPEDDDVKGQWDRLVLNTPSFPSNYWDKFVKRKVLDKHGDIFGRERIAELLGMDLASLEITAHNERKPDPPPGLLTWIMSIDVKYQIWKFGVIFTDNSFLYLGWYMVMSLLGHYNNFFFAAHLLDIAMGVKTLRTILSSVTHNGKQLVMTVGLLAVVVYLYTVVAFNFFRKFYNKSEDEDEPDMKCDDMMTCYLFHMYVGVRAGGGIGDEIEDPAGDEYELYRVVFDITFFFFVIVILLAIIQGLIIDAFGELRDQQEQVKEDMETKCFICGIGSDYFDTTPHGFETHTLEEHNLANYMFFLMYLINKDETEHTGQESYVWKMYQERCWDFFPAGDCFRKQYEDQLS
Excerpt: (§1) RyR1 functions as a muscle isotype of ryanodine receptors that is mechanically activated by Dihydropyridine receptor (hereinafter “DHPR”) to release Ca^2+ from the sarcoplasmic reticulum (hereinafter SR), thus evoking excitation-contraction coupling (hereinafter E-C coupling). In some exemplary methods, whole-cell clamping in combination with a fluorescent Ca^2+ indicator, such as Fluo-3 AM, was used to study the E-C coupling function of RyR1^m1Nisw mutant protein in cultured myotubes. […] Addition of the RyR1 agonist, 4-chloro-m-cresol (4-CmC; 0.5 mM), produced substantial Ca^2+ release in both normal and Ryr1^m1Nisw/m1Nisw myotubes (peak ΔF/F of 1.4±0.1; n=5 vs. 1.2±0.1; n=3, respectively; p>0.05; FIG. 2d, e), compared to Ryr1^tm1Alle/tm1Alle null myotubes (ΔF/F 0.1±0.0; n=6; FIG. 2e). […] However, the rate of SR Ca^2+ release in response to 4-CmC was much slower in Ryr1^m1Nisw/m1Nisw versus normal myotubes (t1/2act=6.5±2.4 vs. 2.2±0.6 s, respectively; p<0.01; FIG. 2d). […] Under controlled physiological conditions, RyR1^m1Nisw/m1Nisw protein may be non-functional compared to wild type RyR1 in skeletal muscle.
(§2) FIG. 2a provides representative recordings of myoplasmic Ca^2+ transients elicited by 50-ms depolarizations from −50 mV to the indicated test potentials for locomotor normal myotubes (left; L. Normal) and Ryr1^m1Nisw/m1Nisw myotubes (right). […] FIG. 2c represents an exemplary histogram illustrating fractions of myotubes that contracted in response to a 100 V, 10 ms electrical stimulus for normal myotubes (black bar), Ryr1^m1Nisw/m1Nisw myotubes, and Ryr1^m1Nisw/m1Nisw myotubes transfected with YFP-tagged wild type RyR1 (RyR1-YFP, grey bar). The total number of myotubes tested is indicated above each bar. The defect of contraction observed in Ryr1^m1Nisw/m1Nisw myotubes (0%) was restored to 50-60% by expression of RyR1-YFP compared to the normal myotubes (90%). […] FIG. 2e represents an exemplary histogram of half-rise time of Ca^2+ transients in response to 4-CmC observed in normal (blackzbar), Ryr1^m1Nisw/m1Nisw (grey bar) and RyR1^tm1Alle/tm1Alle (white bar) myotubes. Error bars represent±SEM. An asterisk indicates a significant difference (p=0.006; t-test). The total number of myotubes tested is indicated above each bar.
(§3) Intracellular Ca^2+ was recorded with Fluo-3 (Invitrogen) at a final concentration of 200 μM that was injected by whole cell configuration, a waiting period of >5 min was used to allow the dye to diffuse into the cell interior. The total change in fluorescence (ΔF/F) was determined from the change in peak fluorescence from initial baseline during stimulation and F was the fluorescence immediately before the test pulse minus the measured average background (non Fluo-3) fluorescence before dye entry. For normal myotubes, average values of fluorescence change (ΔF) for each test potential (V) were fitted according to: (ΔF)=(ΔF)max/{1+exp[(VF−V)/kF]}, where (ΔF)max=1093 au, VF=−1.4 mV and kF=5.5 mV. Fluorescence emission was measured by fluorometer. Ryr1 cDNA was provided by Kurt Beam and Roger Bannister assisted in these experiments.

RyR1 [2] = target: T2, RyR1 (Mus musculus, UniProt E9PZQ0, E4242G); type: cell-based; conditions: 4-CmC 0.5 mM, Ryr1^m1Nisw/m1Nisw myotubes
T2 construct: produced substantial Ca^2+ release in both normal and Ryr1^m1Nisw/m1Nisw myotubes; endogenous in cells; host or cells: cultured myotubes from locomotor-normal mouse embryos
T2 sequence (E9PZQ0 whole entry E4242G): as the sequence (E9PZQ0 whole entry) above, with E4242G counted along it
Excerpt: as §1, §2, §3

RyR1 [3] = type: cell-based, mouse; conditions: 4-CmC; Ryr1^tm1Alle/tm1Alle null myotubes; n=6
Excerpt: as §1, §2, §3

## Cc1cc(O)ccc1Cl [4-CmC, 4-chloro-m-cresol]
RyR1 [1]
  t1/2act (rate of SR Ca^2+ release): 2.2 ± 0.6 s
RyR1 [1]; n=5
  peak ΔF/F (Ca^2+ release): 1.4±0.1
RyR1 [2]
  t1/2act (rate of SR Ca^2+ release): 6.5 ± 2.4 s
RyR1 [2]; n=3
  peak ΔF/F (Ca^2+ release): 1.2±0.1
RyR1 [3]
  ΔF/F (Ca^2+ release): 0.1±0.0
